Test [1] deals with T1, recombinant mouse NAPE-PLD (Mus musculus, UniProt Q8BH82).
T1 construct: hexahistidine (His6) (C); made in house; host or cells: E. coli
T1 sequence (Q8BH82 1-396): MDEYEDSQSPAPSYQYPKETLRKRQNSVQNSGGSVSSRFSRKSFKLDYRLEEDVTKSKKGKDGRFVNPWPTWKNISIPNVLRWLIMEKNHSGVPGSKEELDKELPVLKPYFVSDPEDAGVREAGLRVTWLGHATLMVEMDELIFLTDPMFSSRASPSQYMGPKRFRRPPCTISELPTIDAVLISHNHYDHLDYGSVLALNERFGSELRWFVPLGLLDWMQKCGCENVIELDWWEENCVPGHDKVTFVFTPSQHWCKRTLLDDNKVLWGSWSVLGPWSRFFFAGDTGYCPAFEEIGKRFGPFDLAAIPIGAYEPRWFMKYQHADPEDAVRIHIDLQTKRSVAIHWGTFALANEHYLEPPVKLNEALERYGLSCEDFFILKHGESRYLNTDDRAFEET
Kind of test: Michaelis-Menten analysis with flame-NAPE as substrate. Format: biochemical. Here is the method: To further understand this effect, a 50-nanosecond molecular dynamic (MD) simulation was performed using AMBER17. The PDQ9:VU534 complex was prepped for simulation using CHARMM-GUI and ff14SB, TIP3P, GAFF2 force fields were employed for proteins, […] molecules, respectively. This simulation predicted that VU534 binding to the interface pocket allosterically alters the catalytic site conformation including reorienting the zinc-hydroxide-zinc complex parallel to the substrate (FIG. 11), consistent with the measured increased kcat.
A similar in vitro fluorescence Nape-pld activity assay was used for LEI-401 and VU233 competition assays except that this assay was performed using black-walled clear-bottom 96-well plates with 3.5 μM PED-A1 and no N-palmitoyl-dioleoyl-PE used as substrate and read in a BioTek Synergy H1 plate reader with the slope of the fluorescence signal from 0-4 min (linear phase) used as the assay readout. LEI-401, VU233, and VU534 were incubated for 1 h prior to addition of PED-A1. The Michaelis-Menten study used this same assay except with graded concentration of flame-NAPE.
To confirm the results of the fluorescence-based assays, an orthogonal biochemical Nape-pld assay based on LC/MS was employed. Recombinant mouse NAPE-PLD was pre-treated with VU534, VU533, VU233 or vehicle for 30 min, then N-oleoyl-phosphatidylethanolamine (NOPE) was added for 90 min, and the resulting levels of OEA and NOPE was measured by LC/MS. […] To further characterize the effect of VU534 on NAPE-PLD activity, a Michaelis-Menten analysis was performed using recombinant mouse NAPE-PLD and graded concentrations of flame-NAPE, a selective NAPE-PLD fluorogenic substrate resistant to competing esterase activity.

The target of test [2] is T2, NAPE-PLD activity in primary BMDMϕ (Mus musculus, UniProt Q8BH82).
T2 construct: endogenous in cells; host or cells: primary bone-marrow-derived macrophages (C57BL6/j mice)
T2 sequence (Q8BH82 1-396): T1 sequence (Q8BH82 1-396)
Kind of test: NAPE-PLD activity in primary bone marrow derived macrophages. It counts as cell-based. The note with it: VU534 at 10 μM (FIG. 5).

Each structure is given as a SMILES string. “Also recorded” adds a separate entry of the source.

On to `Cc1cc(C)c2sc(NC(=O)C3CCN(S(=O)(=O)c4ccc(F)cc4)CC3)nc2c1` [VU534, N-(5,7-Dimethylbenzo[d]thiazol-2-yl)-1-((4-fluorophenyl)sulfonyl)piperidine-4-carboxamide], for which the “effect on catalytic rate (kcat) of NAPE-PLD” value in test [1] (Example 9, FIG. 10) is recorded as “enhanced kcat (turnover number) without reducing the Michaelis-Menten constant, Km; also recorded: increases the catalytic rate”. Further, the “K1/2 of NAPE-PLD” value in test [1] (with VU534 (vehicle 12.4 μM), flame-NAPE) came out at 5.9 µM. Also, the “maximal velocity of NAPE-PLD” value in test [1] (with VU534 (vehicle 227 RFU/min), flame-NAPE) is 421 RFU/min. For the same compound, in test [2], the “effect on NAPE-PLD activity in primary BMDM” value is recorded as “increases NAPE-PLD activity”.

Source of the values: patent US20250250265A1, “BENZOTHIAZOLE-PHENYLSULFONYL-PIPERIDINE ANALOGS AS ACTIVATORS OF NACYLPHOSPHATIDYLETHANOLAMINE HYDROLYZING PHOSPHOLIPASE D” (priority 2022, published 2025).
